Assay results from patent US20230227435A1, “SMALL MOLECULE MODULATORS OF IL-17” (LEO PHARMA A/S, priority 2020, published 2023).

Target: T1, human IL-17AA (Homo sapiens, UniProt Q16552)
T1 construct: host or cells: HEK (human embryonic kidney) cells
T1 sequence (Q16552 24-155) 1: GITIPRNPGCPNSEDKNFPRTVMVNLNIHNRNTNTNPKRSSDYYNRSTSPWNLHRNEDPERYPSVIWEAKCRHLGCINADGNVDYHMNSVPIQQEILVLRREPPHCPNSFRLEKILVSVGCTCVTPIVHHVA
T1 sequence (Q16552 24-155) 2: T1 sequence (Q16552 24-155) 1
Test: IL-8 release assay in human epithelial keratinocytes adult (HEKa)
Assay type: cell-based
Conditions: HEKa cells, 3 ng/mL HEK-human IL-17AA + 10 ng/mL human TNFalpha, 68-72 hours, IL-8 by HTRF; for EC50: read-out: Rel EC50 IL-8 release assay
Procedure: Example 8: IL-8 Release Assay in Human Epithelial Keratinocytes Adult (HEKa)
Keratinocytes were seeded at 3500 cells/well in 384-well ViewPlates (Perkin Elmer) in Epilife medium (Thermo Fisher) containing human keratinocyte growth supplement (HKGS) without hydrocortisone and incubated in a humid incubator at 37° C., 5% CO2, overnight. The following day growth medium was removed and 25 μl fresh Epilife medium was added. 75 nL test compound in100% DMSO was added into each well reserved for test compounds, by the use of acoustic pipetting. The remaining wells received an equal volume of DMSO only, as vehicle control, or terfenadine in DMSO, as a positive control for any cytotoxic compounds. Subsequently, another 25 μL Epilife medium was added to each well. Finally, wells containing test compounds and wells prepared to yield maximum stimulation received 25 μL of 9 ng/mL recombinant, human embryonic kidney cell (HEK)-derived human IL-17AA+30 ng/mL human TNF-alpha, in Epilife medium. Wells prepared to define 100% inhibition of IL-17 effects received 25 μL of 30 ng/mL human TNF-alpha alone, in Epilife medium. Final concentrations were 3 ng/mL HEK-human IL-17AA+10 ng/mL human TNFalpha (maximum stimulation) and 10 ng/mL human TNFalpha alone (100% inhibition, Emax), respectively. Cells were incubated for 68-72 hours in the incubator. IL-8 released from the cells was measured by the use of a commercial homogenous time-resolved fluorescence (HTRF) assay (CisBio). 2 μL cell culture supernatant was transferred to a 384-well Proxiplate. 5 μL HTRF reagent was added and the plates were incubated sealed in the dark for 3-22 hours at room temperature. Time-resolved fluorescence was read at 665 vs 620 nm, with excitation at 320 nm, and IL-8 levels were calculated as percent of controls. Reduction of the amount of secreted IL-8 indicates decreased IL-17 signaling. Concentration response curves were fitted by the use of a four-parameter logistic equation. Relative IC50 and Emax were reported from curves showing acceptable fit (r^2>0.9). Cytotoxicity was measured in the cell-containing Viewplates following addition of 7 μL PrestoBlue (Thermo Fisher) and incubation for 2.5-3 hours at room temperature, by measuring fluorescence at 615 nm (excitation at 535 nm). Fluorescence was directly proportional to the amount of metabolic activity. Reduction of fluorescence signal indicated cytotoxicity.
Compounds of the present invention were tested in the IL-8 release assay in human epithelial keratinocytes.

| SMILES | EC50 [nM] | Rel EC50 IL-8 release assay |
| --- | --- | --- |
| Cc1nn(C)cc1-c1nnc(C(C(=O)Nc2ccc(-c3c(C)n[nH]c3C)cc2)C(C2CC2)C2CC2)[nH]1 (stereo not drawn) [Example 25, 3,3-dicyclopropyl-N-[4-(3,5-dimethyl-1H-pyrazol-4-yl)phenyl]-2-[5-(1,3-dimethylpyrazol-4-yl)-4H-1,2,4-triazol-3-yl]propanamide] | 230 |  |
| Cc1n[nH]c(C)c1-c1ccc(NC(=O)C(c2nnc(-c3ccnn3CC(F)(F)F)[nH]2)C(C2CC2)C2CC2)cc1 (stereo not drawn) [Example 26, 3,3-dicyclopropyl-N-[4-(3,5-dimethyl-1H-pyrazol-4-yl)phenyl]-2-[5-[2-(2,2,2-trifluoroethyl)pyrazol-3-yl]-4H-1,2,4-triazol-3-yl]propanamide] | 24 |  |
| Cc1n[nH]c(C)c1-c1ccc(NC(=O)C(c2nnc(-c3ccnn3C3CCC3)[nH]2)C(C2CC2)C2CC2)cc1 (stereo not drawn) [Example 27, 2-[5-(2-cyclobutylpyrazol-3-yl)-4H-1,2,4-triazol-3-yl]-3,3-dicyclopropyl-N-[4-(3,5-dimethyl-1H-pyrazol-4-yl)phenyl]propanamide] | 32 |  |
| Cc1cc(-c2nnc(C(C(=O)Nc3ccc(-c4c(C)n[nH]c4C)cc3)C(C3CC3)C3CC3)[nH]2)ccn1 (stereo not drawn) [Example 28, 3,3-dicyclopropyl-N-[4-(3,5-dimethyl-1H-pyrazol-4-yl)phenyl]-2-[5-(2-methyl-4-pyridyl)-4H-1,2,4-triazol-3-yl]propanamide] | 140 |  |
| Cc1n[nH]c(C)c1-c1ccc(NC(=O)C(c2nnc(-c3c(C)n[nH]c3C)[nH]2)C(C2CC2)C2CC2)cc1 (stereo not drawn) [Example 29, 3,3-dicyclopropyl-N-[4-(3,5-dimethyl-1H-pyrazol-4-yl)phenyl]-2-[5-(3,5-dimethyl-1H-pyrazol-4-yl)-4H-1,2,4-triazol-3-yl]propanamide] | 1400 |  |
| Cc1n[nH]c(C)c1-c1ccc(NC(=O)C(c2nnc(-c3cnn(C(C)C)c3)[nH]2)C(C2CC2)C2CC2)cc1 (stereo not drawn) [Example 30, 3,3-dicyclopropyl-N-[4-(3,5-dimethyl-1H-pyrazol-4-yl)phenyl]-2-[5-(1-isopropylpyrazol-4-yl)-4H-1,2,4-triazol-3-yl]propanamide] | 270 |  |
| Cc1n[nH]c(C)c1-c1ccc(NC(=O)C(c2nnc(-c3cccnc3)[nH]2)C(C2CC2)C2CC2)cc1 (stereo not drawn) [Example 31, 3,3-dicyclopropyl-N-[4-(3,5-dimethyl-1H-pyrazol-4-yl)phenyl]-2-[5-(3-pyridyl)-4H-1,2,4-triazol-3-yl]propanamide] | 430 |  |
| Cc1n[nH]c(C)c1-c1ccc(NC(=O)C(c2nnc(-c3c(C)noc3C)[nH]2)C(C2CC2)C2CC2)cc1 (stereo not drawn) [Example 32, 3,3-dicyclopropyl-2-[5-(3,5-dimethylisoxazol-4-yl)-4H-1,2,4-triazol-3-yl]-N-[4-(3,5-dimethyl-1H-pyrazol-4-yl)phenyl]propanamide] | 910 |  |
| Cc1n[nH]c(C)c1-c1ccc(NC(=O)C(c2nnc(-c3ccncc3)[nH]2)C(C2CC2)C2CC2)cc1 (stereo not drawn) [Example 33, 3,3-dicyclopropyl-N-[4-(3,5-dimethyl-1H-pyrazol-4-yl)phenyl]-2-[5-(4-pyridyl)-4H-1,2,4-triazol-3-yl]propanamide] | 480 |  |
| COc1ccc(-c2nnc(C(C(=O)Nc3ccc(-c4c(C)n[nH]c4C)cc3)C(C3CC3)C3CC3)[nH]2)cn1 (stereo not drawn) [Example 34, 3,3-dicyclopropyl-N-[4-(3,5-dimethyl-1H-pyrazol-4-yl)phenyl]-2-[5-(6-methoxy-3-pyridyl)-4H-1,2,4-triazol-3-yl]propanamide] | 430 |  |
| COc1cc(-c2nnc(C(C(=O)Nc3ccc(-c4c(C)n[nH]c4C)cc3)C(C3CC3)C3CC3)[nH]2)ccn1 (stereo not drawn) [Example 35, 3,3-dicyclopropyl-N-[4-(3,5-dimethyl-1H-pyrazol-4-yl)phenyl]-2-[5-(2-methoxy-4-pyridyl)-4H-1,2,4-triazol-3-yl]propanamide] | 160 |  |
| Cc1ccc(-c2nnc(C(C(=O)Nc3ccc(-c4c(C)n[nH]c4C)cc3)C(C3CC3)C3CC3)[nH]2)cn1 (stereo not drawn) [Example 36, 3,3-dicyclopropyl-N-[4-(3,5-dimethyl-1H-pyrazol-4-yl)phenyl]-2-[5-(6-methyl-3-pyridyl)-4H-1,2,4-triazol-3-yl]propanamide] | 440 |  |
| Cc1cnn(C)c1-c1nnc(C(C(=O)Nc2ccc(-c3c(C)n[nH]c3C)cc2)C(C2CC2)C2CC2)[nH]1 (stereo not drawn) [Example 37, 3,3-dicyclopropyl-N-[4-(3,5-dimethyl-1H-pyrazol-4-yl)phenyl]-2-[5-(2,4-dimethylpyrazol-3-yl)-4H-1,2,4-triazol-3-yl]propanamide] | 380 |  |
| Cc1n[nH]c(C)c1-c1ccc(NC(=O)C(c2nnc(-c3cnn(C)c3C)[nH]2)C(C2CC2)C2CC2)cc1 (stereo not drawn) [Example 38, 3,3-dicyclopropyl-N-[4-(3,5-dimethyl-1H-pyrazol-4-yl)phenyl]-2-[5-(1,5-dimethylpyrazol-4-yl)-4H-1,2,4-triazol-3-yl]propanamide] | 360 |  |
| Cc1n[nH]cc1-c1nnc(C(C(=O)Nc2ccc(-c3c(C)n[nH]c3C)cc2)C(C2CC2)C2CC2)[nH]1 (stereo not drawn) [Example 39, 3,3-dicyclopropyl-N-[4-(3,5-dimethyl-1H-pyrazol-4-yl)phenyl]-2-[5-(3-methyl-1H-pyrazol-4-yl)-4H-1,2,4-triazol-3-yl]propanamide] | 500 |  |
| Cc1n[nH]c(C)c1-c1ccc(NC(=O)C(c2nnc(-c3cnnn3C)[nH]2)C(C2CC2)C2CC2)cc1 (stereo not drawn) [Example 40, 3,3-dicyclopropyl-N-[4-(3,5-dimethyl-1H-pyrazol-4-yl)phenyl]-2-[5-(3-methyltriazol-4-yl)-4H-1,2,4-triazol-3-yl]propanamide] | 860 |  |
| Cc1n[nH]c(C)c1-c1ccc(NC(=O)C(c2nnc(-c3cnoc3C)[nH]2)C(C2CC2)C2CC2)cc1 (stereo not drawn) [Example 41, 3,3-dicyclopropyl-N-[4-(3,5-dimethyl-1H-pyrazol-4-yl)phenyl]-2-[5-(5-methylisoxazol-4-yl)-4H-1,2,4-triazol-3-yl]propanamide] | > 3250 |  |
| Cc1nocc1-c1nnc(C(C(=O)Nc2ccc(-c3c(C)n[nH]c3C)cc2)C(C2CC2)C2CC2)[nH]1 (stereo not drawn) [Example 42, 3,3-dicyclopropyl-N-[4-(3,5-dimethyl-1H-pyrazol-4-yl)phenyl]-2-[5-(3-methylisoxazol-4-yl)-4H-1,2,4-triazol-3-yl]propanamide] | 470 |  |
| Cc1n[nH]c(C)c1-c1ccc(NC(=O)C(c2nnc(-c3ccnn3C(C)C)[nH]2)C(C2CC2)C2CC2)cc1 (stereo not drawn) [Example 43, 3,3-dicyclopropyl-N-[4-(3,5-dimethyl-1H-pyrazol-4-yl)phenyl]-2-[5-(2-isopropylpyrazol-3-yl)-4H-1,2,4-triazol-3-yl]propanamide] | 66 |  |
| Cc1n[nH]c(C)c1-c1ccc(NC(=O)C(c2nnc(-c3ccnn3C3CC3)[nH]2)C(C2CC2)C2CC2)cc1 (stereo not drawn) [Example 44, 3,3-dicyclopropyl-2-[5-(2-cyclopropylpyrazol-3-yl)-4H-1,2,4-triazol-3-yl]-N-[4-(3,5-dimethyl-1H-pyrazol-4-yl)phenyl]propanamide] | 77 |  |
| Cc1n[nH]c(C)c1-c1ccc(NC(=O)C(c2nnc(-c3ccnn3CC3CC3)[nH]2)C(C2CC2)C2CC2)cc1 (stereo not drawn) [Example 45, 3,3-dicyclopropyl-2-[5-[2-(cyclopropylmethyl)pyrazol-3-yl]-4H-1,2,4-triazol-3-yl]-N-[4-(3,5-dimethyl-1H-pyrazol-4-yl)phenyl]propanamide] | 22 |  |
| Cc1cn(C)nc1-c1nnc(C(C(=O)Nc2ccc(-c3c(C)n[nH]c3C)cc2)C(C2CC2)C2CC2)[nH]1 (stereo not drawn) [Example 46, 3,3-dicyclopropyl-N-[4-(3,5-dimethyl-1H-pyrazol-4-yl)phenyl]-2-[5-(1,4-dimethylpyrazol-3-yl)-4H-1,2,4-triazol-3-yl]propanamide] |  | no |
| Cc1cc(-c2nnc(C(C(=O)Nc3ccc(-c4c(C)n[nH]c4C)cc3)C(C3CC3)C3CC3)[nH]2)n(C)n1 (stereo not drawn) [Example 47, 3,3-dicyclopropyl-N-[4-(3,5-dimethyl-1H-pyrazol-4-yl)phenyl]-2-[5-(2,5-dimethylpyrazol-3-yl)-4H-1,2,4-triazol-3-yl]propanamide] | 83 |  |
| COc1cncc(-c2nnc(C(C(=O)Nc3ccc(-c4c(C)n[nH]c4C)cc3)C(C3CC3)C3CC3)[nH]2)c1 (stereo not drawn) [Example 48, 3,3-dicyclopropyl-N-[4-(3,5-dimethyl-1H-pyrazol-4-yl)phenyl]-2-[5-(5-methoxy-3-pyridyl)-4H-1,2,4-triazol-3-yl]propanamide] | 130 |  |
